In US8354498B2, “CD4 mimic peptides and their uses” (Commissariat a l'Energie Atomique, priority 2006, dated 2013):
Where two headings read alike, the source gives them in different places.

Assays:
Format in all cases: cell-based
HIV-1 Ba-L = experiment: Dendritic cells assay: MO-DC/CD4+ T cell co-cultures, replication competent virus; settings: for EC50: Human immunodeficiency virus 1, BAL
Experimental: Dendritic cell experiments were preformed with the replication-competent CCR5 co-receptor, using non-syncytium inducing, subtype B HIV-1 strain Ba-L whose infectious titer was determined on cultures of PHA/IL-2 stimulated PBMC.
Monocytes were separated from the buffy-coats of HIV seronegative blood donors by counter-flow elutriation and E-rosetting. They were subsequently differentiated to monocyte-derived dendritic cells (MO-DC) using GM-CSF and IL-4. […] After 30 minutes, 100 μl of MO-DC were added (4×10^5 cells/ml) and incubated for 2 h (37° C., 5% CO2). Afterwards, cells were washed 3 times and autologous CD4+ T cells were added, in the presence of compound. Co-cultures were incubated for 24 h, after which the cells were washed again (3 times) to remove the compound. Cells were incubated during 14 days of primary culture, during which half of the culture medium was refreshed twice weekly, without compound. At day 14, cultures were washed and PHA/IL-2 activated PBMC were added (2×10^5 cells/cup) to detect any latent or subliminal infection during a supplementary 14 days of secondary culture. Culture supernatants of primary (day 7 and day 14) and secondary (day 28) cultures were analyzed for the presence of HIV p24 Ag by a monoclonal p24 antibody (HuMab-HIVp24; BIOMARIC NV) enzyme-linked immunosorbant assay (ELISA).
Importantly, the replication-competent HIV-1 Ba-L reference strain, was used for these experiments. The virus was shortly pre-incubated with a dilution range of one of the compounds before addition of the MO-DC target cells. The compound remained present during infection and during the first 24 h of the co-culture of the MO-DC with the autologous CD4^+ T cells, but was washed away afterwards.

HIV-1 pseudovirus CA10-3 = experiment: HIV single cycle pseudovirus assay in GHOST cells; settings: read-out: antiviral activity EC50
Experimental: (§1) For single-cycle infection experiments, HIV pseudoviruses representative of different HIV-1 subtypes were produced by co-transfection of 2×10^5 HEK293 (American Type Culture Collection) derived cells expressing the SV40 T antigen (HEK293 T), using the calcium phosphate method (ProFection® mammalian transfection system; PROMEGA). To this end, 1 μg of an HIV-1 env expressing vector under control of a CMV promoter, derived from pcDNA4/TO backbone vector (INVITROGEN) and 400 ng of the HIV-1 genomic vector (pNL4-3.Luc R^−E^−; National Institutes of Health AIDS Research and Reference Reagent program; catalogue number 3418), under control of the LTR promoter were used. pNL4-3.Luc R^−E^− contains the whole HIV genome, including a packaging signal, but has a frameshift in the env and vpr genes rendering it non-infectious. Furthermore a luciferase reporter gene replaces the nef gene. After 24 h, the medium was replaced with medium containing 1 mM sodium butyrate (SIGMA-ALDRICH) and the cells were further incubated for an additional 24 h. Afterwards, the supernatant with the pseudovirus was harvested, filtered (Millex 0.45 μm filters, MILLIPORE) and after adding Fetal calf serum (FCS; 10%) stored at −80° C. Pseudoviruses of different HIV-1 subtypes were created, including pseudoviruses derived from the subtype B, CCR5 co-receptor using strains Ba-L and SF162; the subtype B, CXCR4 co-receptor using strains Mn; the subtype C, CCR5 co-receptor using strains VI829, VI1358 and MJ4 and the CRF01_AE, CXCR4 co-receptor using strain CA10-3.
(§2) Fifty microliters of HIV pseudovirus were pre-incubated with 50 μl of a dilution series of a CD4 miniprotein or reference compound. After 15 minutes, 100 μl of GHOST target cells (AIDS REFERENCE AND REAGENT PROGRAM; 1.2×10^5 cells/ml) expressing CD4 and either of the HIV co-receptors CCR5 or CXCR4 were added to the 96-well cups containing the pre-treated pseudovirus. The GHOST cells were lysed 48 h post-infection by addition of the luciferin substrate (SteadyLite HTS, PERKIN ELMER LIFE SCIENCES). The resulting light signal, expressed as relative lights units (RLU), was quantified in a luminometer (Top Count™, CANBERRA-PACKARD).

HIV-1 pseudovirus Mn = experiment: HIV single cycle pseudovirus assay in GHOST cells; settings: read-out: antiviral activity EC50
Experimental: as §1, §2

HIV-1 pseudovirus Ba-L = experiment: HIV single cycle pseudovirus assay in GHOST cells; settings: read-out: antiviral activity EC50
Experimental: as §1, §2

HIV-1 pseudovirus VI829 = experiment: HIV single cycle pseudovirus assay in GHOST cells; settings: read-out: antiviral activity EC50
Experimental: as §1, §2

HIV-1 pseudovirus VI1358 = experiment: HIV single cycle pseudovirus assay in GHOST cells; settings: read-out: antiviral activity EC50
Experimental: as §1, §2

HIV-1 pseudovirus MJ4 = experiment: HIV single cycle pseudovirus assay in GHOST cells; settings: read-out: antiviral activity EC50
Experimental: as §1, §2

HIV-1 pseudovirus SF162 = experiment: HIV single cycle pseudovirus assay in GHOST cells; settings: read-out: antiviral activity EC50
Experimental: as §1, §2

Cc1cc(C)c(Nc2ccnc(Nc3ccc(C#N)cc3)n2)c(C)c1 [TMC120]
EC50 (HIV-1 Ba-L; 168 h, Day 7, read-out: EC50, primary culture, Day 7): 3 nM | EC50 (HIV-1 Ba-L; 336 h, Day 14, read-out: EC50, primary culture, Day 14): 3 nM | Cmin, secondary culture, Day 28 (minimal concentration blocking infection) (HIV-1 Ba-L; confirmed at Day 28): 100 nM | EC50 (HIV-1 pseudovirus CA10-3): 1.5 nM | EC50 (HIV-1 pseudovirus Mn): 1.8 nM | EC50 (HIV-1 pseudovirus Ba-L): 1.5 nM | EC50 (HIV-1 pseudovirus VI829): 1.2 nM | EC50 (HIV-1 pseudovirus VI1358): 0.6 nM | EC50 (HIV-1 pseudovirus MJ4): 1.5 nM | EC50 (HIV-1 pseudovirus SF162): 0.9 nM
